In one data set the test system is MDA-MB-231. In words: MTT in vitro cytotoxicity assay. In kind it is cell-based, human. To be noted: for Selectivity index (SI): (IC50 of WI-38)/(IC50 of MDA-MB-231).
Data set [1] can be described thus: MTT cytotoxicity on non-tumorigenic normal cell line. To be noted: human, WI-38 cells (non-tumorigenic normal lung fibroblasts). In kind it is cell-based.
A further data set relates to HepG2. The data set is described as follows: MTT in vitro cytotoxicity assay. To be noted: for Selectivity index (SI): (IC50 of WI-38)/(IC50 of HepG2); for IC50: Homo sapiens, HepG2, 24 h, read-out: In vitro cytotoxicity activity IC50 ± SD.
The subject of the next data set is HCT-116. In words: MTT in vitro cytotoxicity assay. To be noted: for Selectivity index (SI): (IC50 of WI-38)/(IC50 of HCT-116); for IC50: Homo sapiens, HCT-116, 24 h, read-out: In vitro cytotoxicity activity IC50 ± SD.
In another data set the test system is MCF-7. The data set is described as follows: MTT in vitro cytotoxicity assay. Particulars: for Selectivity index (SI): (IC50 of WI-38)/(IC50 of MCF-7); for IC50: read-out: In vitro cytotoxicity activity IC50 ± SD.
The test system of data set [2] is MCF-7 cells. In words: Cell cycle analysis by flow cytometry. In kind it is cell-based, human. To be noted: MCF-7 treated at IC50 = 3.82 μM. For orientation: In flow cytometry, cells or beads pass a laser one at a time.
Data set [3] relates to MCF-7 cells. The data set is described as follows: Annexin-V/propidium iodide apoptosis assay. In kind it is cell-based, human.
A further data set has as its system p53. In words: qRT-PCR gene expression in MCF-7. In kind it is cell-based, human. To be noted: MCF-7, vs untreated control = 1. Background: Real-time PCR tracks product formation cycle by cycle.
The target of another data set is EGFR^Wt (Homo sapiens, UniProt P00533). In words: EGFR Kinase Assay Kit. In kind it is biochemical.
EGFR^Wt, sequence (P00533 25-1210): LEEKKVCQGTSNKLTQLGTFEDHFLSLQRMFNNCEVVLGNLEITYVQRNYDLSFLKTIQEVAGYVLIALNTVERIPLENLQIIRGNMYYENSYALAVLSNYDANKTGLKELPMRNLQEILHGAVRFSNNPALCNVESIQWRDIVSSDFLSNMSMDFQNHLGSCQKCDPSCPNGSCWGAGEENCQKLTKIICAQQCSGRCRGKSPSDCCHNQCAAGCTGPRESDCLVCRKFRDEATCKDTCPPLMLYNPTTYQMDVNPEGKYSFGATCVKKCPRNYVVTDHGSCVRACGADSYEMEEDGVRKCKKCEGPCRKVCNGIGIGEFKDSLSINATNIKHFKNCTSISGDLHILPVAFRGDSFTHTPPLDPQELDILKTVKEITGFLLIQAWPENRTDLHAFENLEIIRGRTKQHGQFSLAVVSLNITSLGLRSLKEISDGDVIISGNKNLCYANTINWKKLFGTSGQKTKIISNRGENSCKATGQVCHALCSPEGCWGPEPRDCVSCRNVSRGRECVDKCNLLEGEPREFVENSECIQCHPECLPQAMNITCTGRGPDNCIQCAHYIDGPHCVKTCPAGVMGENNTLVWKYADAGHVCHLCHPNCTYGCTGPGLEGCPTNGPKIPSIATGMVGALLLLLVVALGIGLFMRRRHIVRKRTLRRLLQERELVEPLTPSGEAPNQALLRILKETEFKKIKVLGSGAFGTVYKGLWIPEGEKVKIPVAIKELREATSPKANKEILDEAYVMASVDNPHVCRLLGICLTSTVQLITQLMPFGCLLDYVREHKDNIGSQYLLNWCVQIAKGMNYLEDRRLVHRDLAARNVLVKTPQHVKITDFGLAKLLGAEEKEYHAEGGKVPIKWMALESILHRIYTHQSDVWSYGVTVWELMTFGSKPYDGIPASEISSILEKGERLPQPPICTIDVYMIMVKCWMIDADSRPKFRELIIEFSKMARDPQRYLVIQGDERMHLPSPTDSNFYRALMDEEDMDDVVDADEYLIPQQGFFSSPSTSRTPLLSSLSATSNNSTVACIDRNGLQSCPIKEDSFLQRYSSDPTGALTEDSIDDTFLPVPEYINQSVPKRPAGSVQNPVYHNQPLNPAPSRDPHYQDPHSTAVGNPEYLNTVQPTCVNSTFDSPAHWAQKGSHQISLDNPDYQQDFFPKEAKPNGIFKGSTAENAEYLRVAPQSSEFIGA
For the next data set, the target named is EGFR^(L858R) (Homo sapiens, UniProt P00533, L858R). The data set is described as follows: EGFR. In kind it is biochemical.
EGFR^(L858R), sequence (P00533 25-1210 L858R): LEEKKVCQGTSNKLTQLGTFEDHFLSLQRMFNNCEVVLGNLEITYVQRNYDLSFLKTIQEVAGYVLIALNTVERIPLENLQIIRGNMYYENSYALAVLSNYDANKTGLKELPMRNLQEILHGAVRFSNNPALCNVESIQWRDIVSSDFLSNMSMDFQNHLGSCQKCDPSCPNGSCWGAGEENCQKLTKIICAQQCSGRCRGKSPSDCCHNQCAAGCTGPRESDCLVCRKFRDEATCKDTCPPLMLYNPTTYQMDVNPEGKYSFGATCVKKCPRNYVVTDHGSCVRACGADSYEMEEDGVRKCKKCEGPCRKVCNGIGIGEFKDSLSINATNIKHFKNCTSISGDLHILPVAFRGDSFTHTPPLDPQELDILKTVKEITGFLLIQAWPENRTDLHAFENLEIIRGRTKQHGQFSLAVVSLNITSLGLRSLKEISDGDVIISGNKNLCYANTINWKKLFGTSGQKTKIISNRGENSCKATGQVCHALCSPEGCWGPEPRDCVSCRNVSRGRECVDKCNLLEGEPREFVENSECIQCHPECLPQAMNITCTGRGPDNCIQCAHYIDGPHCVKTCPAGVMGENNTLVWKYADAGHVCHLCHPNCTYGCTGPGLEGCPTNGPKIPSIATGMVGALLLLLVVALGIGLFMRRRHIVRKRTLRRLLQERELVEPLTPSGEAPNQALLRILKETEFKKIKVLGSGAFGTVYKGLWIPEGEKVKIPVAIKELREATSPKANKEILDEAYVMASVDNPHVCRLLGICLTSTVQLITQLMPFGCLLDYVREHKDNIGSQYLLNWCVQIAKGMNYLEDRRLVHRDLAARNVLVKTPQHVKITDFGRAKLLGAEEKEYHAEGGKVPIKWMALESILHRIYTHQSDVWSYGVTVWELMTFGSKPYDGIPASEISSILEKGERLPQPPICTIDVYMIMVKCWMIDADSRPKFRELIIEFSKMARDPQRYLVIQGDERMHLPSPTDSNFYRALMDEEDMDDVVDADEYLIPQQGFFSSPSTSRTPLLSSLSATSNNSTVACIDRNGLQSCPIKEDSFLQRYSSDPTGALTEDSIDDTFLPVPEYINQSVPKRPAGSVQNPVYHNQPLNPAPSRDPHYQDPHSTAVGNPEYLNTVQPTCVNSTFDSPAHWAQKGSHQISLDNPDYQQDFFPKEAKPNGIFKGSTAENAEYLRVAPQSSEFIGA
A further data set addresses VEGFR2 (Homo sapiens, UniProt P35968). The data set is described as follows: biochemical.

Where two headings read alike, the source gives them in different places.

VEGFR2, sequence (P35968 20-1356): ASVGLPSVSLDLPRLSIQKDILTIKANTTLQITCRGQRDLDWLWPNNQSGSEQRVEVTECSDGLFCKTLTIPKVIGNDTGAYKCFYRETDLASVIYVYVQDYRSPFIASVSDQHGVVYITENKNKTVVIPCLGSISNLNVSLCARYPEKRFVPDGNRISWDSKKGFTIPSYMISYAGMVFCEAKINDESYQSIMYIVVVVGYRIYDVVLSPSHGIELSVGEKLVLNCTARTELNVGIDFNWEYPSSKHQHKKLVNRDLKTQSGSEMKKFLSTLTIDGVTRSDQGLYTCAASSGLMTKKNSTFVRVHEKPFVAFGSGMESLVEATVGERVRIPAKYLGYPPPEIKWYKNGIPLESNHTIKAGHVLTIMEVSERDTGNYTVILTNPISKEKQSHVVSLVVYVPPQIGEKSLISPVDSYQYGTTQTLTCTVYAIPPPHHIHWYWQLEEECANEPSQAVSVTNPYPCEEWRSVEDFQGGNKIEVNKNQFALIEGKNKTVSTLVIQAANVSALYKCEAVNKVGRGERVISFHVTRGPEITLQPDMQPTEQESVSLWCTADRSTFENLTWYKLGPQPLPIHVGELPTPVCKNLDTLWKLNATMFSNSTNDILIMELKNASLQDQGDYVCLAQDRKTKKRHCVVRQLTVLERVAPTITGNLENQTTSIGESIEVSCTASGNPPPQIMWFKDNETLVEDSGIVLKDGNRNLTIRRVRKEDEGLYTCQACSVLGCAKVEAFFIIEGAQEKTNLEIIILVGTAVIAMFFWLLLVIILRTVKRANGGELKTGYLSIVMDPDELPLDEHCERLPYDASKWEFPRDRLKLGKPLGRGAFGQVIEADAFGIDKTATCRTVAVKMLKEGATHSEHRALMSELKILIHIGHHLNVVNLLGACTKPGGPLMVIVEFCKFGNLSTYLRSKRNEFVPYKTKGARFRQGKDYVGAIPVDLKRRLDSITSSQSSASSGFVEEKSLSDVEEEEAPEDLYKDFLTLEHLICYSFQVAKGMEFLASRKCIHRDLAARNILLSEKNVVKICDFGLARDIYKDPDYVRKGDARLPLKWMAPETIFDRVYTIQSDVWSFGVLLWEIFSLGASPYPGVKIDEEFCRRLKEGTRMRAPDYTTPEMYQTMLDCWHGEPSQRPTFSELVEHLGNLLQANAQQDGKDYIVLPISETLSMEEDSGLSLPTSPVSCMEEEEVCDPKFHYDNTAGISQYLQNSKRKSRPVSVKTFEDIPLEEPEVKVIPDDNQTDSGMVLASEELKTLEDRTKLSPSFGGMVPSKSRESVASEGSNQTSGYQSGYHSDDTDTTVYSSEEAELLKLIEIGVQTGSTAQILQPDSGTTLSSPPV

As usually defined, the IC50 is the concentration at which inhibition is half-maximal. As for `N#CC(C(=O)Nc1cccc(C(F)(F)F)c1)=C1Sc2nc3ccc(S(=O)(=O)N4CCCC4)cc3nc2S1` [Compound 10c, 2-Cyano-2-(6-(pyrrolidin-1-ylsulfonyl)-[1,3]dithiolo[4,5-b]quinoxalin-2-ylidene)-N-(3-(trifluoromethyl)phenyl)acetamide], the “Selectivity index (SI)” value is listed as 8.48 with MDA-MB-231, 3.82 in the data set on HepG2, 7.01 in the data set with HCT-116 and 10.61 in the data set with MCF-7. For the same molecule, 65.1 ± 3.5 µM corresponded to half-maximal inhibition in data set [1] (IC50 at 24 h). Besides, the IC50 is 17 ± 1.3 µM in the data set on HepG2; 9.26 ± 0.8 µM in the data set with HCT-116; 6.13 ± 0.4 µM in the data set with MCF-7 (MCF-7, MTT, 24 h).

As for `CC1=NNC(=O)C1=C1Sc2nc3ccc(S(=O)(=O)N4CCCC4)cc3nc2S1` [Compound 14, 5-Methyl-4-(6-(pyrrolidin-1-ylsulfonyl)-[1,3]dithiolo[4,5-b]quinoxalin-2-ylidene)-2,4-dihydro-3H-pyrazol-3-one], the results for the IC50 in the data set on HepG2 and in the data set on HCT-116 were 69 ± 3.9 µM and 71.2 ± 3.8 µM, respectively.

In the case of `CC1=NN(c2ccccc2)C(=O)C1=C1Sc2nc3ccc(S(=O)(=O)N4CCCC4)cc3nc2S1` [Compound 16, 5-Methyl-2-phenyl-4-(6-(pyrrolidin-1-ylsulfonyl)-[1,3]dithiolo[4,5-b]quinoxalin-2-ylidene)-2,4-dihydro-3H-pyrazol-3-one], the IC50 with HepG2 and with HCT-116 was over 100 µM each time.

Regarding `O=C1NC(=O)C(=C2Sc3nc4ccc(S(=O)(=O)N5CCCC5)cc4nc3S2)C(=O)N1` [Compound 18, 5-(6-(Pyrrolidin-1-ylsulfonyl)-[1,3]dithiolo[4,5-b]quinoxalin-2-ylidene)pyrimidine-2,4,6(1H,3H,5H)-trione], the concentration for half-maximal inhibition (IC50) with HepG2 is 83.4 ± 4.3 µM; in the data set on HCT-116, over 100 µM; in the data set with MCF-7 (Homo sapiens, MCF7, 24 h), 62.8 ± 3.4 µM.

Regarding `O=C1CCCCC1=C1Sc2nc3ccc(S(=O)(=O)N4CCCC4)cc3nc2S1` [Compound 12, 2-(6-(Pyrrolidin-1-ylsulfonyl)-[1,3]dithiolo[4,5-b]quinoxalin-2-ylidene)cyclohexan-1-one], the “Selectivity index (SI)” value amounted to 36.12 with MDA-MB-231, 9.89 in the data set with HepG2, 10.26 with HCT-116 and 21.37 with MCF-7. Further, the “Fold increase of potency as compared with doxorubicin” value in the data set with MDA-MB-231 (MDA-MB-231) stood at 1.41 fold; in the data set with MCF-7 (MCF-7) it was 1.09 fold. The IC50 at 24 h in data set [1] is 81.6 ± 4.1 µM. Further, the “Cell cycle distribution %G2/M” value in the data set on MCF-7 cells [2] (untreated control 12.55) worked out at 7.32%. The “Cell cycle distribution %G0-G1” value in the data set on MCF-7 cells [2] (untreated control 57.66) is listed as 48.16%. Further, the “Increase in early apoptosis compared to the control” value in the data set on MCF-7 cells [3] (MCF-7) was 54.59 folds. The “Increase in late apoptosis compared to the control” value with MCF-7 cells [3] (MCF-7) was found to be 79.33 folds. In addition, the “Apoptosis Late” value in the data set on MCF-7 cells [3] (MCF-7, at IC50 for 24 h, control 0.15) came to 11.9%. For the same molecule, the “Apoptosis Early” value in the data set on MCF-7 cells [3] (MCF-7, at IC50 for 24 h, control 0.44) is given as 24.02%. Moreover, the Necrosis with MCF-7 cells [3] (MCF-7, at IC50 for 24 h, control 1.25) was 6.16%. Further, the “Apoptosis Total” value with MCF-7 cells [3] (MCF-7, at IC50 for 24 h, control 1.84) is 42.08%. In the data set on p53, the “RT-PCR results fold change p53 (pro-apoptotic)” value turned out to be 4.97 fold. In addition, the IC50 on EGFR^Wt (Enzyme inhibitory activity IC50 EGFR^Wt) amounted to 0.19 ± 0.009 µM; at EGFR^(L858R) (Enzyme inhibitory activity IC50 EGFR^(L858R)), 0.121 ± 0.007 µM; against VEGFR2 (Enzyme inhibitory activity IC50 VEGFR2), 0.42 ± 0.021 µM; in the data set with HepG2, 8.25 ± 0.6 µM; in the data set on HCT-116, 7.95 ± 0.5 µM; with MCF-7 (Homo sapiens, MCF7, 24 h) it was 3.82 ± 0.2 µM. Moreover, the inhibition at 10 µM at EGFR^Wt (read-out: Inhibitory% EGFR^Wt) was determined as 85.4%; at EGFR^(L858R) (read-out: Inhibitory% EGFR^(L858R)), 87%; at VEGFR2 (read-out: Inhibitory% VEGFR2), 78.9%.

Regarding `N#CC(C#N)=C1Sc2nc3ccc(S(=O)(=O)N4CCCC4)cc3nc2S1` [Compound 10a, 2-(6-(Pyrrolidin-1-ylsulfonyl)-[1,3]dithiolo[4,5-b]quinoxalin-2-ylidene)malononitrile], the half-inhibitory concentration (IC50) worked out at 89.7 ± 4.5 µM with HepG2 and 93.8 ± 4.7 µM in the data set with HCT-116.

Consider `COc1ccc(C=NNC(=O)C(C#N)=C2Sc3nc4ccc(S(=O)(=O)N5CCCC5)cc4nc3S2)cc1` [Compound 10d, 2-Cyano-N′-(4-methoxybenzylidene)-2-(6-(pyrrolidin-1-ylsulfonyl)-[1,3]dithiolo[4,5-b]quinoxalin-2-ylidene)acetohydrazide], for which the half-maximal inhibitory concentration (IC50) was 32.1 ± 2.2 µM in the data set on HepG2 and 18.4 ± 1.4 µM with HCT-116.

Regarding `O=S(=O)(c1ccc2nc(Cl)c(Cl)nc2c1)N1CCCC1` [Compound 7, 2,3-Dichloro-6-(pyrrolidin-1-ylsulfonyl)quinoxaline], the IC50 with HepG2 worked out at 48.7 ± 2.8 µM; in the data set on HCT-116 it was 38.1 ± 2.2 µM.

Consider `CCOC(=O)C(C#N)=C1Sc2nc3ccc(S(=O)(=O)N4CCCC4)cc3nc2S1` [Compound 10b, Ethyl 2-cyano-2-(6-(pyrrolidin-1-ylsulfonyl)-[1,3]dithiolo[4,5-b]quinoxalin-2-ylidene)acetate], for which the IC50 came out at 80.3 ± 4.1 µM in the data set with HepG2 and 87.4 ± 4.2 µM with HCT-116.

With `N#CC(C(=O)NN=C1C(=O)Nc2ccccc21)=C1Sc2nc3ccc(S(=O)(=O)N4CCCC4)cc3nc2S1` [Compound 10e, 2-Cyano-N′-(2-oxoindolin-3-ylidene)-2-(6-(pyrrolidin-1-ylsulfonyl)-[1,3]dithiolo[4,5-b]quinoxalin-2-ylidene)acetohydrazide], the IC50 worked out at 41.9 ± 2.5 µM in the data set on HepG2 and 22 ± 1.7 µM in the data set on HCT-116.

In the case of `CCOC(=O)C(C(C)=O)=C1Sc2nc3ccc(S(=O)(=O)N4CCCC4)cc3nc2S1` [Compound 10f, Ethyl 3-oxo-2-(6-(pyrrolidin-1-ylsulfonyl)-[1,3]dithiolo[4,5-b]quinoxalin-2-ylidene)butanoate], the “Selectivity index (SI)” value with MDA-MB-231 was found to be 4.41; in the data set with HepG2, 1.76; in the data set on HCT-116 it was 3.69; in the data set with MCF-7 it was 5.27. The same molecule returned an IC50 at 24 h in data set [1] of 46.2 ± 2.4 µM. The IC50 was determined as 26.8 ± 1.9 µM with HepG2; 12.5 ± 1 µM in the data set on HCT-116; 8.78 ± 0.6 µM in the data set with MCF-7 (MCF-7, MTT, 24 h).

With `COc1cccc2c1C(=O)c1c(O)c3c(c(O)c1C2=O)C[C@@](O)(C(=O)CO)C[C@@H]3O[C@H]1C[C@H](N)[C@H](O)[C@H](C)O1` [Doxorubicin, doxorubicin, reference compound], the 50% inhibitory concentration (IC50) with HepG2 turned out to be 4.5 ± 0.2 µM.

(Values after paper PMC10123497 (RSC Advances, 2023).)
